We go through 88 compounds from a melting point compilation (Tetko et al.; mined from patent text by program, amines drawn as free bases though some values may be those of a salt).

Bounds are passed on as bounds.

With `Cc1cccc(-c2nn3c(c2-c2ccc(F)cc2)CC[C@H]3CO)n1`, the melting point (usually the temperature of the solid-liquid transition) is 142 to 144 °C. Then `COc1ccc(Nc2ccncc2)c(C(=O)N2CCCCC2)c1`, with 176 to 178 °C; and `CC(C)c1nc(CO)n(Cc2ccc(=O)[nH]c2)c1Sc1cc(Cl)cc(Cl)c1`, with 220 °C; and `O=C(NOCC(O)CN1CCCCC1)Nc1cccc(Cl)c1` (stereo not drawn), with 117 to 118 °C. Then `Cc1cc(Cl)ccc1-c1cccc2c1OC(CN)CN2C` (stereo not drawn), with 109 to 112 °C. On to `CC(C)n1nc(-c2cc(Cl)c(N)nc2-c2ccccc2)ccc1=O`, for which the melting point was 207 to 208 °C. Next, `CCCOc1ccc(S(=O)(=O)N2CCN(CCOC(=O)CCC)CC2)cc1-c1nc2c(CCC)cn(CC)c2c(=O)[nH]1`: 71.5 to 73 °C; `COC(=O)c1c(C)nn2c(-c3cccc(C(F)(F)F)c3)ccnc12`: 177 to 179 °C. Then `c1cncc(CN2CCN(CCCCc3c[nH]c4ccc(-n5cnnc5)cc34)CC2)c1`, with 110 to 112 °C. Then `CN(C)C(=O)C(C)(C)n1cc(Br)c(-c2ccccc2)n1`, with 122 to 124 °C. In the case of `CCCCCCCCCCCCCCc1ccc(OC)cc1`, the melting point came to 38 °C.

In turn, `CNc1cccc(-c2ccc(C(=O)O)c(=O)[nH]2)c1` displayed a melting point of 283 to 284 °C. Next, `O=C1N=C(N2CCOCC2)SC1=Cc1cc(-c2ccc(O)c(C34CC5CC(CC(C5)C3)C4)c2)c(O)cc1O`: 306 to 310 °C; `C1=Cc2cc(C=C(c3ccc4c(c3)C=C4)c3ccc4c(c3)C=C4)ccc21`: 87 to 89 °C. Then `COC(=O)c1ccc2c(Br)nn(C)c2c1`, with 122 to 125 °C; and `O=C(Nc1cccc(-c2ccnc3c(C(=O)c4cccs4)cnn23)c1)c1ccc(-n2cccc2)cc1`, with 224 to 226 °C; and `COC(=O)c1cc(-c2ccccc2)c(=O)n2c1-c1cc(Cl)ccc1CC2`, with 139 to 141 °C. Then `CC(=O)OC1C(COC(=O)c2ccccc2)OC(n2cc(Cl)c(N)nc2=O)C1F` (stereo not drawn), with 233 °C; and `CC(C)Oc1nc2cc([N+](=O)[O-])c(-n3ccc(=O)cc3)cc2[nH]c1=NC#N`, with over 300 °C. The compound `CCOC(=O)CCc1ccc2cc(O)ccc2n1` displayed a melting point of 126 to 128 °C. Next, `O=c1cc(C(F)(F)F)ccn1-c1c(Cl)cc(CO)cc1Cl`: 151 to 152 °C; `COC(=O)CCCCCCC1=CC(O)CC1=O` (stereo not drawn): 50 to 51 °C. Turning to `Cc1ccc(C2c3c(cc(C)c(Br)c3C)OC2(C)C)cc1` (stereo not drawn), the melting point lay within 116 to 118 °C. For the compound `O=C(O)c1c(OCCF)cccc1OCCF`, the melting point lay in the range of 57 to 58 °C.

`Cc1cc(-c2c3ccccc3c(Br)c3sc(C)c(C)c23)cc(C)c1OS(=O)(=O)c1ccc(C(=O)OC(C)(C)C)c(O)c1` gave a melting point of 168 to 172 °C. Next, `COc1ccccc1OCC(=O)NCCO[N+](=O)[O-]`: 63 to 64 °C; `COc1cc(-c2nc3ccc(OCCN4CCN(C)CC4)cc3n2Cc2ccccc2)cc(OC)c1OC`: 113 °C; `COC(=O)CCc1ccc(OCC2CN(c3ccccc3)C(=O)O2)cc1` (stereo not drawn): 138 to 139 °C. With `Cc1nc(N(C)C)ccc1N1CCCn2c1nc1c(Cl)ccc(C(OC(F)F)C(F)(F)F)c12` (stereo not drawn), the melting point was in the range of 233 to 235 °C. Next, `O=C(NCc1ccc(Cl)cc1)c1cn2c3c(cc(CN4CCOCC4)cc3c1=O)N=C(NCc1ccccc1)C2`: 235 to 240 °C. Compound `COc1cc(CCCC2OCCO2)ccc1OCc1nc(-c2ccccc2)oc1C` showed a melting point of 74 to 75 °C.

`Brc1ccc(N2CCN(Cc3c[nH]c4ncccc34)CC2)cc1` displayed a melting point of 234 to 238 °C. Next, `COc1cc2c(cc1O)CCN(Cc1cccc(OC(C)=O)c1)C2`: 120 to 122 °C. `COc1ccc(CS(=O)(=O)c2cc3ccc(O)cc3oc2=O)cc1` showed a melting point of 231 to 232 °C.

The compound `Cc1ccc(CO[C@H]2CO[C@@H](c3ccccc3)OC2)cc1C` yielded a melting point of 79 to 80 °C. Then `CCCN1CCN(c2nc3ccc(N=CN(C)C)cc3nc2N2CCN(CCC)CC2)CC1`, with 95.5 to 98 °C; and `N=C(Nc1ccc(Cl)cc1)Nc1ncc(Cl)cc1OCc1c(F)cccc1Cl`, with 132 to 133 °C. With `CS(=O)(=O)Nc1cc2c(cc1Oc1ccccc1)C(NS(C)(=O)=O)C=C2` (stereo not drawn), the melting point is 154 °C. `COc1ccc2ccccc2c1C1C(CC(=O)O)CC(=O)N1c1ccccc1` (stereo not drawn) yielded a melting point of 198 to 203 °C.

For `COC(=O)CCC/C=C(\c1cc(F)cc(C(F)(F)F)c1)c1cc(C)c2on(C)c(=O)c2c1`, the melting point was in the range of 97.5 to 98.5 °C. For the compound `CCC(=NOC)C1=C(O)CC(c2ccc(NS(C)(=O)=O)cc2)CC1=O` (stereo not drawn), the melting point was in the range of 150 to 151 °C. Next, `CC(C)=CCOc1ccc2c(=O)c(C)c(-c3ccccc3)oc2c1C(=O)C=Cc1ccccc1`: 83 to 84 °C; `CC1(C)OC(=O)[C@@H](CC=O)O1`: 37 to 38 °C; `COC(=O)c1ccccc1OCNC(=O)OC(C)(C)C`: 95 to 96 °C.

Take `NC(=S)C(c1ccccc1)c1cccnn1` (stereo not drawn): the melting point lay within 161 to 163 °C. Next, `O=Cc1csc2ccc(O)cc12`: 200 °C; `COCc1nc2c([N+](=O)[O-])cc(Br)cc2n1C`: 145 to 147 °C.

`CCCn1c(=O)c2[nH]c(/C=C/c3cccc([N+](=O)[O-])c3)nc2n(CCC)c1=O` gave a melting point of 256 to 257 °C. Then `Nc1nc2cc3c(cc2[nH]1)OCO3`, with 230 to 243 °C; and `CCCN(CCCN1CCN(c2cccc(Cl)c2Cl)CC1)C1CCc2ncsc2C1` (stereo not drawn), with 110 °C; and `CCCCCCOc1ccc(NS(=O)(=O)c2ccc(N3CCNC3=O)cc2)cc1`, with 225 to 226 °C. Next, `CCOc1nc2cccc(C(Br)Br)c2c(=O)o1`: 98 to 99 °C; `CC1c2ccccc2CN1NC(=O)c1ccc(Cl)c(S(N)(=O)=O)c1` (stereo not drawn): 208 to 210 °C; `Cc1cc(-n2cccn2)c2cccc(OCc3c(Cl)ccc(S(=O)(=O)N4CCC[C@H]4C(=O)O)c3Cl)c2n1`: 148 °C. Next, `CCOC(=O)C1Cc2sc(N)c(C(=O)c3ccccc3Cl)c2C1` (stereo not drawn): 121 to 122 °C. Regarding `COC1=C(OC)C(=O)C(CCCCCCCCCOC(C)=O)=C(C)C1=O`, the melting point amounted to 30 °C. Next, `C=C(C)COc1ccc2c(C)cc(=O)oc2c1C(=O)C=Cc1cc(OC)c(OC)c(OC)c1`: 128 to 130 °C; `N#CN=C(Nc1cccnc1)NC(NC(=O)c1cccc(Cl)c1)C(F)(F)C(F)(F)F` (stereo not drawn): 183 to 185 °C. The compound `CC1CCCCC1OC(=O)c1cc(NC(=O)c2ccccc2)ccc1Cl` (stereo not drawn) showed a melting point of 121 to 122 °C.

In turn, `COc1cc(-c2cnc3[nH]cc(C(=O)CC(C)C)c3n2)cc(OC)c1OC` yielded a melting point of 210 to 211 °C. Next, `C=CCN1C(=O)C(C)N(c2ccc(Oc3ccccc3)cc2)C1=S` (stereo not drawn): 77 °C; `O=C(O)c1ccc(S(=O)(=O)Oc2ccc(-c3ccc(-c4c(Cc5ccccc5)sc5ccccc45)cc3)cc2)cc1O`: 236 to 238 °C. Then `CC(=O)OC(C)c1cc2c(s1)C(=O)c1ccsc1C2=O` (stereo not drawn), with 174 to 176 °C; and `Cc1cc2nc(Cl)cc(N)c2[nH]1`, with 270 °C; and `Cc1cc(C)c(NCCC(N)=S)cc1C`, with 110 to 111 °C. Next, `N#CN=C(N)NCc1ccc2c(c1)Nc1nccnc1S2`: 246 to 248 °C; `CCOc1cc2c(cc1OC)OC(C)(C)CC2=O`: 86 to 87 °C; `C[Si](C)(C)C#Cc1c(F)c(F)c(F)c(C#C[Si](C)(C)C)c1F`: 55 to 57 °C. As to `CC1(C)CCC(C)(C)c2cc(Oc3ccc(C=O)cc3)ccc21`, the melting point is 75 to 76 °C.

As to `CCCCN(CC)CC(=O)N1c2ccccc2NC(=O)c2cncnc21`, the melting point is 151 to 152 °C. In turn, `COc1ccccc1N1CCN(CC=CCN)CC1` had a melting point of 63 to 67 °C. As for `CCCc1c(OCC(O)CS(=O)(=O)c2ccc(CC(=O)O)c(Cl)c2Cl)ccc(C(C)=O)c1O` (stereo not drawn), the melting point was in the range of 181 to 183 °C.

With `Cc1c(C(=O)O)oc2ccccc2c1=O`, the melting point was in the range of 192 to 193 °C. Consider `CSc1ncncc1C1c2cc(NS(=O)(=O)c3ccccc3)ccc2CC1(C)C` (stereo not drawn), for which the melting point fell in the range of 174 to 176 °C.

The compound `CCc1noc(C)c1-c1[nH]c2ccccc2c1C(O)CN(C)C` (stereo not drawn) registered a melting point of 178 to 180 °C. Then `Cc1ccc(-n2c3c(c(=O)c4cccnc42)CCO3)cc1`, with 246 to 248 °C; and `CCN(CC)CCOC(=O)c1nn(-c2ccc(Cl)cc2)c2c1CCc1ccccc1-2`, with 102 to 103 °C. Then `CCOC(=O)CCCc1oc(-n2ccnc2C)nc1-c1ccc(Cl)cc1`, with 72 to 73 °C; and `CCc1ccc(NC(=S)Nc2cc([N+](=O)[O-])ccc2O)cc1`, with 137 to 138 °C.

On to `O=C1CSCC(=O)NCCOCCN1`, for which the melting point lay in the range of 186 to 188 °C. `COCCOc1ccc(CN2C(=O)C3(COc4cc5c(cc43)OCCO5)c3ccccc32)cc1` (stereo not drawn): the melting point fell in the range of 124 to 125 °C. Next, `CC(=O)NCCCC(=NNC(N)=S)c1ccccc1`: 74 to 83 °C; `C=CS(=O)(=O)CCN1CCC(N2N=C(c3ccc(OC)c(OC)c3)[C@H]3CC=CC[C@H]3C2=O)CC1`: 165 to 166 °C; `CCCCCCCC(=O)OCCCCCCOc1ccc(Nc2ccccc2)cc1`: 42 to 43 °C. For `COc1cccc(N(C)C(=S)Oc2ccc3ccccc3c2)n1`, the melting point fell in the range of 95.5 to 97 °C. Next, `O=c1oc2cccc(O)c2c2ccc([N+](=O)[O-])cc12`: over 260 °C; `CCCCS(=O)(=O)NC(=O)c1ccc2nc(C)n(Cc3ccc(-c4ccccn4)cc3)c2c1`: 292 to 298 °C. Then `Cc1nc(C)n(-c2cc([C@@H]3C[C@H]3c3nc4ccccc4n3C)nc(N)n2)n1` (relative stereo), with 120 to 122 °C.
